Results reported in ChEMBL document CHEMBL1151552, “Inhibitory activities of herpes simplex viruses type 1 and 2 and human cytomegalovirus by stereoisomers of 2-deoxy-3-oxa-5(E)-(2-bromovinyl)uridines and their 4-thio analogues” (Bioorg Med Chem Lett, 1994).
Values after ≈ are worked out from the molar mass of the structure shown.

Assays:
[1] = system: F2002 cell line; assay: Inhibitory activity against human cytomegalo virus (WFI strain) in a plaque reduction assay in flow 2002 human fibroblast cells; format: functional, cell-based
[2] = Cytotoxicity in Flow 2002 cell line; format: cell-based; settings: human, Flow 2002 cells
[3] = system: Vero; assay: Inhibitory activity against Herpes Simplex virus type 1 (186 strain) in a Plaque reduction Assay in vero cells; format: functional, cell-based; settings: Chlorocebus sabaeus
[4] = system: Vero; assay: Inhibitory activity against Herpes Simplex virus type 1 (KOS strain) in a Plaque reduction Assay in vero cells; format: functional, cell-based; settings: Chlorocebus sabaeus
[5] = system: Vero; assay: Cytotoxicity in Vero cell line; format: functional; settings: Chlorocebus sabaeus

| Structure (SMILES) | IC50 [1] [µg/mL] | CC50 [2] [µg/mL] | IC50 [3] [µg/mL] | IC50 [4] [µg/mL] | CC50 [5] [µg/mL] |
| --- | --- | --- | --- | --- | --- |
| O=c1[nH]c(=O)n([C@@H]2CO[C@H](CO)O2)cc1/C=C/Br | 5 (≈ 15.7 µM) | 30 (≈ 94 µM) | > 30 | 0.3 (≈ 0.94 µM) | 100 (≈ 313 µM) |
| O=c1[nH]c(=O)n([C@@H]2CO[C@H](CO)S2)cc1/C=C/Br | > 100 | 100 (≈ 298 µM) | > 100 | > 100 | > 100 |
| O=c1[nH]c(=O)n([C@H]2CO[C@H](CO)S2)cc1/C=C/Br | > 100 | > 100 | 30 (≈ 89.5 µM) | > 30 | 100 (≈ 298 µM) |
| O=c1[nH]c(=O)n([C@H]2CO[C@@H](CO)O2)cc1/C=C/Br | > 100 | > 100 | > 30 | > 30 | 100 (≈ 313 µM) |
| O=c1[nH]c(=O)n([C@@H]2CO[C@@H](CO)O2)cc1/C=C/Br | 25 (≈ 78.3 µM) | 100 (≈ 313 µM) | > 30 | > 30 | 100 (≈ 313 µM) |
| O=c1[nH]c(=O)n([C@H]2CO[C@H](CO)O2)cc1/C=C/Br | > 30 | 30 (≈ 94 µM) | > 30 | 3.4 (≈ 10.7 µM) | 100 (≈ 313 µM) |
| O=c1[nH]c(=O)n([C@@H]2CO[C@@H](CO)S2)cc1/C=C/Br | 80 (≈ 239 µM) | 100 (≈ 298 µM) | > 10 | > 10 | 30 (≈ 89.5 µM) |
| O=c1[nH]c(=O)n([C@H]2CO[C@@H](CO)S2)cc1/C=C/Br | > 100 | 100 (≈ 298 µM) | 2.9 (≈ 8.65 µM) | > 30 | 100 (≈ 298 µM) |
| Nc1nc2c(ncn2COCCO)c(=O)[nH]1 [ACYCLOVIR] |  |  | 0.5 (≈ 2.22 µM) | 0.1 (≈ 0.444 µM) | > 10 |
| Nc1nc2c(ncn2COC(CO)CO)c(=O)[nH]1 [GANCICLOVIR] | 0.1 (≈ 0.392 µM) | > 100 |  |  |  |
